From patent US20050181072A1, “Use of essential oils for combating gi tract infection by helicobacter-like organisms” (priority 2000, published 2005)
Values after ≈ are worked out from the molar mass of the structure shown.

These compounds were tested on H. pylori (assay: Liquid medium assay, MBC determination (CFU count after subculture)). Settings: Helicobacter pylori, pH 7.4, read-out: Liquid medium MBC.
Format: cell-based
Procedure: The parameters used to define the inhibitory capacity of a given substance are: 1) the minimal inhibitory concentration (MIC) which is the lowest concentration at which bacterial growth is prevented, and 2) the minimal […] concentration (MBC) which is the lowest concentration at which bacteria are killed (no growth in subculture). In the light of this: MIC≦MBC. ?
b) Liquid medium assay (used for MBC determination)
MBC determination in H. pylori was carried out by placing bacteria and different dilutions of EO at pH 7.4 together for 1 h or 24 h, plating (subculture in solid medium) for 3-5 days, and counting colony forming units (CFU). The results were then plotted as H. pylori (log10CFU/ml) vs concentration of EO (g/l). It is clear from the plots (shown in FIGS. 1 and 2) that EOs already display a marked effect on H. pylori viability after 1 h incubation and that the selected EOs are remarkably potent inhibitors of H. pylori in vitro.

SMILES | MBC
Cc1ccc(C(C)C)cc1O [Carvacrol] | 40 µg/mL (≈ 266 µM)
C=CCc1ccc(OC)cc1 [Estragole] | 100 µg/mL (≈ 675 µM)

Same assay, conditions: Helicobacter pylori; pure compounds, Table 2; pH 7.4; read-out: Liquid medium MBC

SMILES | MBC
CC1=CCC2CC1C2(C)C (stereo not drawn) [Alpha-pinene] | 100 µg/mL (≈ 734 µM)
C=C1CCC2CC1C2(C)C (stereo not drawn) [Beta-pinene] | 100 µg/mL (≈ 734 µM)
CC(C)=CCCC(C)=CC=O [Citral] | 40 µg/mL (≈ 263 µM)
CC(C)=CCCC(C)CC=O (centres unmarked) [Citronellal] | 100 µg/mL (≈ 648 µM)
C=CCc1ccc(O)c(OC)c1 [Eugenol] | 100 µg/mL (≈ 609 µM)
CC12CCC(CC1)C(C)(C)O2 [Eukalyptol] | > 100 µg/mL
CC(C)=CCCC(C)=CCCC(C)=CCO [Farnesol] | 40 µg/mL (≈ 180 µM)
CC(C)=CCC/C(C)=C/CO [Geraniol] | 100 µg/mL (≈ 648 µM)
CC(=O)OC/C=C(\C)CCC=C(C)C [Geranyl acetate] | > 100 µg/mL
CC=Cc1ccc(O)c(OC)c1 [Isoeugenol] | 40 µg/mL (≈ 244 µM)
C=CC(C)(O)CCC=C(C)C (centres unmarked) [Linalool] | 100 µg/mL (≈ 648 µM)
CC1CCC(C(C)C)C(O)C1 (centres unmarked) [Menthol] | > 100 µg/mL
CC(C)=CCC/C(C)=C\CO [Nerol] | 40 µg/mL (≈ 259 µM)
Cc1ccc(C(C)C)c(O)c1 [Thymol] | 100 µg/mL (≈ 666 µM)
CCC/C=C/C=O [Trans-2-hexenal] | 40 µg/mL (≈ 408 µM)
